Measurements as given in patent US10703724B2, “Crystalline forms of {[5-(3-chlorophenyl)-3-hydroxypyridine-2-carbonyl] amino} acetic acid and processes for preparation thereof” (Crystal Pharmaceutical (Suzhou) Co., Ltd., priority 2016, dated 2020).
Converted amounts (≈) assume the structure as drawn. “Also recorded” adds a separate entry of the source.

Tests used:
[1] = Solubility in SGF (suspension rotated, filtrate concentration by HPLC); format: physicochemical; conditions: for Solubility in SGF: SGF (simulated gastric fluids); for solubility in SGF compared with Form A in WO2015073779: SGF at 1 h, 4 h and 24 h
Protocol: Certain amount of Form CS1 in the present disclosure and Form A in WO2015073779 were weighted into vials and suspended in SGF (Simulated Gastric Fluids). The systems were rotated on the rotator at a rate of 25 r/min. After equilibrated for 1 h, 4 h and 24 h, the suspension was separated through 0.45 μm PTFE centrifugal filter and the filtrate was collected. The concentration of the filtrates was measured by HPLC.
(§1) Certain amount of Form CS8 in the present disclosure and Form A in WO2015073779 was weighted into vials and then suspended in SGF (Simulated gastric fluids) and water. The systems were rotated on the rotator at a rate of 25 r/min. After equilibrated for 1 h, 4 h and 24 h, the suspension was separated through 0.45 μm PTFE centrifugal filter and the filtrate was collected. The concentration of the filtrates was measured by HPLC.

[2] = Stability comparison experiment: slurry in water at room temperature, about 40 days; format: physicochemical
Protocol: Stability comparison experiment: about 4 mg of Form CS2 and Form A in WO2015073779 was weighted into a 1.5 mL glass vial and 1.0 mL of water was added into the vial. The solid form of the initial sample was tested. After stirring at a rate of 500 r/min at room temperature for about 40 days, the solid form of the sample was tested again. The XRPD pattern overlay is depicted in FIG. 13.

[3] = as disclosed in WO2015073779; cited from earlier work
[4] = Storage stability of the crystalline form (XRPD before and after storage); format: physicochemical; conditions: for Solid Form after storage: XRPD
Protocol: Form CS1 in the present disclosure was stored under 25° C./60% RH and 40° C./75% RH for 1 month. The XRPD pattern was collected before and after storage, and the XRPD pattern overlay is depicted in FIG. 10.
Accelerated experiment: Form CS2 was stored under 25° C./60% RH, 40° C./75% RH and 60° C./75% RH for 1 month. The XRPD pattern was collected before and after storage, and the overlay is depicted in FIG. 11.
Form CS8 of the present disclosure was stored under 25° C./60% RH, 40° C./75% RH and 60° C./75% RH for 20 days.

[5] = Mechanical stability experiment: manual grinding for 5 minutes in a mortar; format: physicochemical; conditions: XRPD
Protocol: Mechanical stability experiment: Form CS2 was manually ground for 5 minutes in a mortar. The XRPD pattern collected before and after grinding is depicted in FIG. 12.

[6] = Hygroscopicity by dynamic vapor sorption (DVS); format: physicochemical
Protocol: Dynamic Vapor Sorption (DVS) was measured via an SMS (Surface Measurement Systems Ltd.) intrinsic DVS instrument. Its control software is DVS-Intrinsic control software, and its analysis software is DVS-Intrinsic Analysis software. Typical Parameters for DVS test are as follows: • Temperature: 25° C. • Gas and flow rate: N2, 200 mL/min • dm/dt: 0.002%/min • RH range: 0% RH to 95% RH
Dynamic vapor sorption (DVS) was applied to test hygroscopicity of Form CS2 with 10 mg of sample.
Dynamic vapor sorption (DVS) was applied to test hygroscopicity of Form CS8 with 10 mg of sample and the DVS curve is depicted in FIG. 14. The weight gain of Form CS8 under 80% RH is 0.06%, which means Form CS8 is non hygroscopic or almost non hygroscopic.
Description and definition of hygroscopicity in the general principle 9103 of Chinese Pharmacopoeia: • deliquescent: Sufficient water is absorbed to form a liquid; • very hygroscopic: Increase in mass is equal to or greater than 15 percent; • hygroscopic: Increase in mass is less than 15 percent and equal to or greater than 2 percent; • slightly hygroscopic: Increase in mass is less than 2 percent and equal to or greater than 0.2 percent. • non hygroscopic or almost non hygroscopic: Increase in mass is less than 0.2%.

[7] = Pressure stability: tableting under 3 KN, 7 KN and 14 KN, XRPD before and after; format: physicochemical; conditions: 7 KN and 14 KN pressure
Description: Form CS2 was compressed using an ENERPAC manual tablet press under 3 KN, 7 KN and 14 KN pressure with φ6 mm round tooling (to ensure isotropy of the tablet). XRPD pattern overlay depicted in FIG. 15 was collected by a […] Panalytical Empyrean X-ray diffractometer before and after tableting.

[8] = Solubility in water (suspension rotated, filtrate concentration by HPLC); format: physicochemical
Protocol: as §1

[9] = 25° C./60% RH, 40° C./75% RH and 60° C./75% RH

Row | SMILES | Solubility in SGF ([1]; equilibrated 1 h) [µg/mL] | Solubility in SGF ([1]; equilibrated 4 h) [µg/mL] | Solubility in SGF ([1]; equilibrated 24 h) [µg/mL] | solubility in SGF compared with Form A in WO2015073779 [1] | Solid Form after storage ([4]; 25° C./60% RH, 1 month) | Solid Form after storage ([4]; 40° C./75% RH, 1 month) | time the form keeps stable [4, 9] | further results
1 | O=C(O)CNC(=O)c1ncc(-c2cccc(Cl)c2)cc1O [Form A in WO2015073779, {[5-(3-chlorophenyl)-3-hydroxypyridine-2-carbonyl]amino} acetic acid, reference compound] | 8.5 (≈ 27.7 µM) | 8.6 (≈ 28 µM) | 3.8 (≈ 12.4 µM) | – | – | – | – | solid form after slurry in water ([2]; water, 500 r/min, room temperature, XRPD): almost completely converted to Form CS2
2 | O=C(O)CNC(=O)c1ncc(-c2cccc(Cl)c2)cc1O [Form B, {[5-(3-chlorophenyl)-3-hydroxypyridine-2-carbonyl]amino} acetic acid] | – | – | – | – | – | – | – | conversion in slurry at high temperature [3]: may convert to Form A
3 | O=C(O)CNC(=O)c1ncc(-c2cccc(Cl)c2)cc1O [Form CS1, {[5-(3-chlorophenyl)-3-hydroxypyridine-2-carbonyl]amino} acetic acid] | 23 (≈ 75 µM) | 26 (≈ 84.8 µM) | 19 (≈ 61.9 µM) | higher | Form CS1, no form change | Form CS1, no form change | – | time the form keeps stable ([4]; 25° C./60% RH and 40° C./75% RH): at least 1 month
4 | O=C(O)CNC(=O)c1ncc(-c2cccc(Cl)c2)cc1O [Form CS2, {[5-(3-chlorophenyl)-3-hydroxypyridine-2-carbonyl]amino} acetic acid] | – | – | – | – | Form CS2, no form change | Form CS2, no form change | at least 1 month | Solid Form after storage ([4]; 25° C./60% RH, 20 days): Form CS8, no form change; Solid Form after storage ([4]; 40° C./75% RH, 20 days): Form CS8, no form change; Solid Form after storage ([4]; 60° C./75% RH, 1 month): Form CS2, no form change; Solid Form after storage ([4]; 60° C./75% RH, 20 days): Form CS8, no form change; stability in water compared with Form A in WO2015073779 ([2]; slurry in water): more stable; crystal structure after manual grinding [5]: doesn't change; weight gain from 40% RH to 80% RH ([6]; DVS, 25° C., 10 mg of sample): 0.11%; hygroscopicity (in words) ([6]; from weight gain 40% RH to 80% RH): low hygroscopic; form change after tableting [7]: no form change; also recorded: stable
5 | O=C(O)CNC(=O)c1ncc(-c2cccc(Cl)c2)cc1O [Form CS8, {[5-(3-chlorophenyl)-3-hydroxypyridine-2-carbonyl]amino} acetic acid] | 20 (≈ 65.2 µM) | 22 (≈ 71.7 µM) | 33 (≈ 108 µM) | higher | – | – | at least 20 days | solubility in water compared with Form A in WO2015073779 [8]: higher; weight gain at 90% RH ([6]; DVS, 25° C.): 0.08%; weight gain at 80% RH ([6]; DVS, 25° C., 10 mg of sample): 0.06%; hygroscopicity class (Chinese Pharmacopoeia general principle 9103) ([6]; from weight gain under 80% RH): non hygroscopic or almost non hygroscopic (Increase in mass is less than 0.2%)
